Test results as given in ChEMBL document CHEMBL1201862, “PubChem BioAssay data set” (2004).
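96-well plates; 48 h exposure; 5 concentrations. Endpoints by linear interpolation between flanking doses. Not reached: highest tested concentration assigned. The concentration for 50% growth inhibition is given as GI50.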 Activity calls are given as the source filed them. Cut-off read from the data, not from the text of the source: active = GI50 up to about 1.1 µM and inactive = higher.

Key:
Assay in all cases: NCI tumour cell line growth inhibition, 48 h
NCI-H460 = test system: NCI-H460
SN12C = test system: SN12C
HT-29 = test system: HT-29
A549 = test system: A549
K562 = test system: K562
EKVX = test system: EKVX
NCI-H226 = test system: NCI-H226
NCI-H23 = test system: NCI-H23
OVCAR-4 = test system: OVCAR-4
CAKI-1 = test system: CAKI-1
NCI-H522 = test system: NCI-H522
HCT-116 = test system: HCT-116
OVCAR-8 = test system: OVCAR-8
SK-MEL-28 = test system: SK-MEL-28
HCT-15 = test system: HCT-15
HL-60 = test system: HL-60
SF-295 = test system: SF-295

| SMILES | GI50 (NCI-H460) | GI50 (SN12C) | GI50 (HT-29) | GI50 (A549) | GI50 (K562) | GI50 (EKVX) | GI50 (NCI-H226) | GI50 (NCI-H23) | GI50 (OVCAR-4) | GI50 (CAKI-1) | GI50 (NCI-H522) | GI50 (HCT-116) | GI50 (OVCAR-8) | GI50 (SK-MEL-28) | GI50 (HCT-15) | GI50 (HL-60) | GI50 (SF-295) |
| --- | --- | --- | --- | --- | --- | --- | --- | --- | --- | --- | --- | --- | --- | --- | --- | --- | --- |
| CCOC(=O)C(=O)Nc1nc2ccc(C)cc2s1 | > 100 µM (inactive) | > 100 µM (inactive) | > 100 µM (inactive) | 32.4 µM (inactive) | > 100 µM (inactive) | > 100 µM (inactive) | > 100 µM (inactive) | > 100 µM (inactive) | > 100 µM (inactive) | > 100 µM (inactive) | > 100 µM (inactive) | > 100 µM (inactive) | > 100 µM (inactive) | > 100 µM (inactive) | > 100 µM |  |  |
| COCC1N=C(c2cc(OC)c(OC)c(OC)c2-c2cc3c(cc2C2OCCCO2)OCO3)O[C@H]1c1ccccc1 (stereo partly specified) | > 100 µM (inactive) | > 100 µM (inactive) | > 100 µM (inactive) | > 100 µM (inactive) | > 100 µM (inactive) | > 100 µM (inactive) | > 100 µM (inactive) | > 100 µM (inactive) | > 100 µM (inactive) | 79.4 µM (inactive) | > 100 µM (inactive) | > 100 µM (inactive) | > 100 µM (inactive) | > 100 µM (inactive) | > 100 µM | > 100 µM (inactive) | > 100 µM (inactive) |
| CCCCCCCCCCCCCC(=O)NCC(OCC)OCC | > 100 µM (inactive) | > 100 µM (inactive) | > 100 µM (inactive) | > 100 µM (inactive) |  | > 100 µM (inactive) | > 100 µM (inactive) | > 100 µM (inactive) | > 100 µM (inactive) |  | > 100 µM (inactive) | > 100 µM (inactive) | > 100 µM (inactive) | > 100 µM (inactive) | > 100 µM | > 100 µM (inactive) | > 100 µM (inactive) |
| CCOC(=O)C(CCCNC(=O)OC(C)(C)C)N(Cc1ccc(OC)cc1OC)C(=O)CC(=O)CP(=O)(OCC)OCC (stereo unspecified) | > 100 µM (inactive) | > 100 µM (inactive) | > 100 µM (inactive) | > 100 µM (inactive) | > 100 µM (inactive) | > 100 µM (inactive) | > 100 µM (inactive) | > 100 µM (inactive) | > 100 µM (inactive) | > 100 µM (inactive) | 29 µM (inactive) | > 100 µM (inactive) | > 100 µM (inactive) | > 100 µM (inactive) |  | 97.7 µM (inactive) | > 100 µM (inactive) |
| CCn1c2ccccc2c2c(-c3ccccc3)cc3c(c21)C(=O)N(c1ccccc1)C3=O | 36.6 µM (inactive) | 91 µM (inactive) |  | > 100 µM (inactive) | > 100 µM (inactive) | > 100 µM (inactive) | > 100 µM (inactive) | > 100 µM (inactive) | > 100 µM (inactive) | > 100 µM (inactive) | > 100 µM (inactive) | 95.5 µM (inactive) | > 100 µM (inactive) | > 100 µM (inactive) | > 100 µM | > 100 µM (inactive) | > 100 µM (inactive) |
| O=c1c2cc3c(cc2c2cccc4c2n1CCC4)OCO3 | 37.1 µM (inactive) | 36.8 µM (inactive) | 51.1 µM (inactive) | 51.6 µM (inactive) | 45.8 µM (inactive) | 33 µM (inactive) | > 100 µM (inactive) | 22.4 µM (inactive) | 88.9 µM (inactive) | 78.9 µM (inactive) | 16.2 µM (inactive) | 23.4 µM (inactive) | 48.1 µM (inactive) | 69.5 µM (inactive) | 36.7 µM | 53.8 µM (inactive) | 33.8 µM (inactive) |
| C/C(=N\NC(=S)N1CCCCCC1)c1nccnc1C |  | 0.285 µM (active) | 0.0719 µM (active) | 0.0331 µM (active) | 0.055 µM (active) | 0.0188 µM (active) |  | < 0.01 µM (active) | 0.134 µM (active) | 0.155 µM (active) |  |  | < 0.01 µM (active) | 0.106 µM (active) | < 0.01 µM | 0.0508 µM (active) | 0.124 µM (active) |
| COc1cc(/C=C2\CCc3ccccc3C2=O)cc(OC)c1OC | 16.9 µM (inactive) | 18 µM (inactive) | 17.5 µM (inactive) | 20.9 µM (inactive) | 8.43 µM (inactive) | 17.9 µM (inactive) | 18.6 µM (inactive) | 15.7 µM (inactive) | 23.9 µM (inactive) | 16.1 µM (inactive) | 14.8 µM (inactive) | 14.1 µM (inactive) | 16.2 µM (inactive) | 15.1 µM (inactive) | 17.3 µM | 10.7 µM (inactive) | 15 µM (inactive) |
| COC(=O)/C=C1/CCC(C(=O)OC)N1 (stereo unspecified) | > 100 µM (inactive) | > 100 µM (inactive) |  | > 100 µM (inactive) | > 100 µM (inactive) | > 100 µM (inactive) |  | > 100 µM (inactive) | > 100 µM (inactive) | > 100 µM (inactive) |  | > 100 µM (inactive) | > 100 µM (inactive) | > 100 µM (inactive) | > 100 µM | > 100 µM (inactive) | > 100 µM (inactive) |
| COc1cc2noc(-c3ccccc3)c2cc1OC | 42.4 µM (inactive) | 34.8 µM (inactive) | 36.6 µM (inactive) | 54.3 µM (inactive) | 50.6 µM (inactive) |  | > 100 µM (inactive) |  | > 100 µM (inactive) | 27.4 µM (inactive) | 36.4 µM (inactive) | 60.1 µM (inactive) | 64.4 µM (inactive) |  | 38.7 µM | 40.1 µM (inactive) | 19 µM (inactive) |
| CN1CCc2ccccc2C(C(=O)c2ccc3c(c2)OCO3)C1=O (stereo unspecified) | > 100 µM (inactive) | > 100 µM (inactive) | > 100 µM (inactive) | > 100 µM (inactive) | > 100 µM (inactive) |  | 99.5 µM (inactive) | 96.2 µM (inactive) | 89.3 µM (inactive) | > 100 µM (inactive) | > 100 µM (inactive) | > 100 µM (inactive) | > 100 µM (inactive) | > 100 µM (inactive) | > 100 µM | > 100 µM (inactive) |  |
| CCOC(=O)CNC(SC)=C(C#N)C#N | > 100 µM (inactive) | > 100 µM (inactive) | > 100 µM (inactive) | > 100 µM (inactive) | > 100 µM (inactive) | > 100 µM (inactive) | > 100 µM (inactive) | > 100 µM (inactive) | > 100 µM (inactive) | > 100 µM (inactive) | > 100 µM (inactive) | > 100 µM (inactive) | > 100 µM (inactive) |  | > 100 µM | > 100 µM (inactive) | > 100 µM (inactive) |
| O=c1[nH]c(=O)n(C2CC(O)C(CO)O2)cc1C(OCC(F)(F)F)OCC(F)(F)F (stereo unspecified) | > 100 µM (inactive) | > 100 µM (inactive) | > 100 µM (inactive) | > 100 µM (inactive) | 53.3 µM (inactive) | > 100 µM (inactive) |  | > 100 µM (inactive) | > 100 µM (inactive) | > 100 µM (inactive) | > 100 µM (inactive) |  | > 100 µM (inactive) | > 100 µM (inactive) |  | > 100 µM (inactive) | > 100 µM (inactive) |
| O=C1C=C(Nc2ccccc2C(=O)c2ccccc2)c2ccccc2C1=O | 71 µM (inactive) | 42.8 µM (inactive) | > 100 µM (inactive) | > 100 µM (inactive) |  | > 100 µM (inactive) | > 100 µM (inactive) | > 100 µM (inactive) | 89.3 µM (inactive) | > 100 µM (inactive) | 25 µM (inactive) | > 100 µM (inactive) | > 100 µM (inactive) | > 100 µM (inactive) | 70.5 µM |  | > 100 µM (inactive) |
| CC(=O)OCc1c(O)nc2c(c1O)-c1ccccc1CC2 | 77.8 µM (inactive) | 62.2 µM (inactive) | 113 µM (inactive) | 134 µM (inactive) | 109 µM (inactive) | 125 µM (inactive) | > 350 µM (inactive) | 76.6 µM (inactive) |  | 59.2 µM (inactive) | 35.6 µM (inactive) | 58.2 µM (inactive) | 101 µM (inactive) | 59.6 µM (inactive) | 57.5 µM | 84.7 µM (inactive) | 74.6 µM (inactive) |
| CCOC(=O)NNC(=O)NC12CC3CC(CC(C3)C1)C2 | > 100 µM (inactive) | > 100 µM (inactive) | > 100 µM (inactive) | > 100 µM (inactive) | > 100 µM (inactive) | > 100 µM (inactive) | > 100 µM (inactive) | > 100 µM (inactive) | > 100 µM (inactive) | > 100 µM (inactive) | > 100 µM (inactive) | > 100 µM (inactive) | > 100 µM (inactive) | > 100 µM (inactive) | > 100 µM |  | > 100 µM (inactive) |
| Cc1[nH]c2c(C)cccc2c1C1Cc2ccccc2N1 (stereo unspecified) | 25.1 µM (inactive) | 21.2 µM (inactive) | 19.5 µM (inactive) | 21.7 µM (inactive) | 29.2 µM (inactive) | 15.5 µM (inactive) | 23.8 µM (inactive) | 20.3 µM (inactive) |  |  | 19.5 µM (inactive) | 17 µM (inactive) | 19.5 µM (inactive) | 18.8 µM (inactive) | 21.3 µM | 19.8 µM (inactive) | 19.8 µM (inactive) |
| COc1ccc2nc3cc(Cl)ccc3c(Sc3ccc(N)cc3)c2c1 | 7.98 µM (inactive) | 11.6 µM (inactive) |  | 12.5 µM (inactive) | 3.42 µM (inactive) | 11.7 µM (inactive) | 18.5 µM (inactive) | 14.1 µM (inactive) | 15.5 µM (inactive) | 12.9 µM (inactive) | 4.83 µM (inactive) | 4.78 µM (inactive) | 11 µM (inactive) | 14.9 µM (inactive) | 3.94 µM |  | 16.7 µM (inactive) |
